According to patent US20230301972A1, “ANTI-FIBROTIC COMPOSITION AND RELATED METHODS” (Fred Hutchinson Cancer Center, priority 2020, published 2023):

Tests used:
TGF-β = test: Time course of TGF-β-induced phosphorylation of SMAD2 and ERK in IPF-LL29 cells (reverse-phase protein array); format: cell-based, human; conditions: 1 mM OSI-632 as printed, TGF-β 5 ng/ml
Method: (§1) IPF-LL29, IPF-LL97A, and human lung fibroblast LL47 cell lines were purchased from ATCC. Mouse lung fibroblasts were isolated from the lungs of male C57BL/6J mice. Cells were grown at 37° C. under 5% CO2, 95% ambient atmosphere and maintained in Dulbecco's […] (DMEM) supplemented with 10% FBS (Sigma) and 1% Penn Strep.
FIG. 1B. […] At the end of the experiment, cells were lysed in 2% SDS lysis buffer. Protein levels of phosphorylated SMAD2 and ERK were detected in the cell lysates by reverse-phase protein array.

LX2 cells = test: Live cell wound healing assay in LX2 cells; format: cell-based, human; conditions: 1 μM; TGFb 6.5 ng/ml; wound closure density at 50 hour
Method: (§2) LX2 cells were obtained from Sigma Aldrich (Cat #SCC064). LX2 cells were grown at 37° C. under 5% CO2, 95% ambient atmosphere and maintained in Dulbecco's […] (DMEM) supplemented with 10% FBS (Sigma) and 1% Penn Strep.
FIG. 10A: LX2 cells were plated on 96-well plates (Essen Image Lock, Essen Instruments). […] Wound closure was monitored with Incucyte Live-Cell Imaging System and software (Essen Instruments) every 2-4 hours for 72 hours. The mean relative wound density of at least three biological replicates was calculated. The wound density correlates with the cell motility. Plotted is the wound closure density at 50 hour.

CCl4-induced fibrosis = test: Carbon tetrachloride (CCl4)-induced liver fibrosis mouse model; format: in vivo
Method: FIGS. 11A and 11B. Male C57BL/6J mice between 6-8 week old were used in the study. Mice were treated with intraperitoneal injection of 0.5 μl carbon tetrachloride (CCl4) per gram body weight, dissolved in corn oil at a ratio of 1:3, twice a week (Tuesdays and Saturdays) for 5.5 weeks or corn oil control only. […] At the end of the study, livers were either snap frozen or fixed in 10% formalin and stained for H&E, Masson Trichrome (FIG. 11A) and Ki67 (FIG. 11B).
(§3) Total RNA was extracted from the snap frozen liver tissue in TRIzol™ Reagent by Omni Bead Ruptor homogenizer. 1 μg of total RNA was reverse transcribed into first-strand cDNA using an RT2 First Strand Kit (QIAGEN). The resultant cDNA was subjected to qPCR using indicated mouse primers to measure the changes in mRNA expression of indicated mouse genes (FIG. 11A and FIG. 11C).
FIG. 12A: Total protein was extracted from the snap frozen liver tissue in T-PER™ Tissue Protein Extraction Reagent by Omni Bead Ruptor homogenizer. Changes in the phosphorylation levels of indicated proteins were detected in the liver homogenates from the CCl4 in vivo studies by reverse-phase protein array.
FIG. 12B: pSTAT3 levels were detected in the fixed […] tissue by immunohistochemistry. Intensity of staining was quantified by HALO imaging software.

[1] = test system: TGF-β activity in LX2 cells; test: SMAD2/3 luciferase reporter assay of TGF-β activity in LX2 cells; format: cell-based, human
Text: In preliminary studies, a well-established, culture-activated human hepatic stellate cell model (LX2, initially established by Scott Friedman as described in Xu, L. et al., Human hepatic stellate cell lines, LX-1 and LX-2: new tools for analysis of hepatic fibrosis. Gut 54, 142-151 (2005), incorporated herein by reference in its entirety) was used and a set of 32 computationally chosen, broad-specific kinase inhibitors that collectively target a broad range of kinases were screened. Each drug was examined at eight concentrations, and its effect on the activity of TGF-β (measured by SMAD2/3 luciferase reporter) and on aHSC cell viability was scored. 1536 data points were then analyzed to develop regression modeling to predict the response to >400 drugs (FIG. 9A). […] (FIG. 9B).
as §2

[2] = test system: bleomycin-induced lung fibrosis; test: Bleomycin-induced lung fibrosis mouse model; format: in vivo
Method: FIG. 6B: Male C57BL/6J mice between 7-10 week old were used in the study. A single dose of 50 IU of bleomycin was given to mouse lung via oropharyngeal aspiration to induce lung fibrosis. […] Mice were sacrificed on Day 28 after bleomycin treatment. Lungs were either snap frozen or fixed in 10% formalin and stained for H&E and Masson Trichrome.
FIG. 6C: H&E and Masson Trichrome staining were evaluated and scored by a board-certified veterinary pathologist.
FIG. 7A: Total protein was extracted from the snap frozen lung tissue in T-PER™ Tissue Protein Extraction Reagent by Omni Bead Ruptor homogenizer. Changes in collagen I and the phosphorylation levels of indicated proteins were detected in the lung homogenates from the bleomycin in vivo studies by reverse-phase protein array.
FIG. 7B: pSTAT3 levels were detected in the fixed lung tissue by immunohistochemistry. Intensity of staining was quantified by HALO imaging software.
as §3, with “FIG. 8: Total” for “Total”, “lung” for “liver”, “genes.” for “genes (FIG. 11A and FIG. 11C).”
A single dose of 25-50 IU of bleomycin was given to mouse lung via oropharyngeal aspiration to induce lung fibrosis. […] Lungs were processed and stained for H&E and Masson Trichrome.

SMAD2/3 = test: SMAD firefly luciferase TGF-β reporter assay in IPF-LL29 cells; format: cell-based, human; conditions: TGF-β 5 ng/ml, 24 hour
Method: as §1
FIG. 1A. A TGF-β reporter cell line was generated by transducing a SMAD firefly luciferase reporter (Cellomics Tech, Cat #PLV-10099-50) into IPF-LL29 cells. […] 24 hours later, luciferase substrate was added to the cells and luciferase signal was measured by Bright-Glo reagent (Promega) using a luminescent plate reader. The intensity of the signal correlates with the activity of SMAD2/3.

SMILES: NC(=O)c1c(OCc2c(F)cc(Br)cc2F)nsc1NC(=O)NCCCCN1CCCC1 [OSI-632, 3-(4-bromo-2,6-difluoro-benzyloxy)-5-[3-(4-pyrrolidin-1-yl-butyl)-ureido]-isothiazole-4-carboxylic acid amide]
- activity of TGF-β (measured by phosphorylation of SMAD2/3 and Erk) (TGF-β): significantly decreased
- TGF-β-induced motility of LX2 cells (LX2 cells): significantly decreased
- carbon tetrachloride (CCl4)-induced fibrosis (CCl4-induced fibrosis; 80 mg/Kg thrice/week oral gavage, 3 weeks, mice, preliminary data): significant decrease
- hepatocyte regeneration measured by Ki67 staining (CCl4-induced fibrosis; livers treated with OSI-632): increased hepatocyte regeneration
- CCl4-induced expression of HSC activation marker Acta2 and proliferation stimuli such as Tgfb2 (CCl4-induced fibrosis; mouse liver, qPCR): reverse
- reversal of CCl4-induced expression of Loxl1 (CCl4-induced fibrosis; mouse liver, qPCR): 2 fold
- reversal of CCl4-induced expression of Timp1 (CCl4-induced fibrosis; mouse liver, qPCR): 5 fold
- reversal of CCl4-induced expression of Timp2 (CCl4-induced fibrosis; mouse liver, qPCR): 2 fold
- reversal of CCl4-induced expression of Timp3 (CCl4-induced fibrosis; mouse liver, qPCR): ~2 fold
- mRNA expression of Col1a1 (qPCR) and protein level of collagen 1 (RPPA), liver (CCl4-induced fibrosis; vs CCl4-only treated controls): significantly decreased
- collagen deposition (Masson trichome staining), liver (CCl4-induced fibrosis; vs CCl4 only treated mice): significant reduction
- IC50 ([1]; Homo sapiens, LX-2, SMAD2/3 luciferase reporter): 13.7 nM
- block of TGF-β activity compared with galunisertib and pirfenidone ([1]; LX2 cells): outperformed
- lung fibrosis, scoring of H&E and Masson Trichrome staining by veterinary pathologist ([2]; 50 mg/kg oral, once a day Monday to Friday for 2 weeks, mice): significantly decreased lung fibrosis
- lung inflammation, scoring of H&E and Masson Trichrome staining ([2]; bleomycin mouse model): significantly decreased
- overall survival ([2]; bleomycin mouse model, OSI-632 treatment): 100%
- collagen deposition (Masson trichome staining) ([2]; vs bleomycin only treated mice, 50 mg/kg): significant reduction
- phosphorylation of Src, Erk, JNK, S6, Nfκβ, and pSTAT3 in lung ([2]; vs bleomycin-only treated mouse lung tissues, RPPA, IHC): significantly decreased
- bleomycin-induced collagen levels and pro-fibrotic factors Fn1, IL-6 and IL-1b in lung ([2]; vs bleomycin-only treated mouse lung tissues, RPPA, qPCR): significantly decreased
- SMAD2/3 activity (luciferase reporter, dose response) (SMAD2/3): inhibited SMAD2/3 activity
